# Experimental data as given in patent US20070254843A1, “Methods for treating bone associated diseases by the use of methionine aminopeptidase-2 inhibitors” (Praecis Pharmaceuticals Incorporated, priority 2006, published 2007).
# Legend:
# [1] = tested on: primary human osteoclast (OC) precursors; assay: Osteoclast differentiation assay (TRAP staining); assay type: cell-based
# Method: Osteoclast differentiation assays. Primary human osteoclast (OC) precursors (Cambrex) were seeded at 10,000 cells/well (50,000 cells/ml) in osteoclast precursor growth medium (Cambrex). The cells were cultured for 7 days in the presence of either M-CSF (33 ng/ml), M-CSF (33 ng/ml) and RANKL (33 ng/ml), or in the presence of both cytokines and different concentrations of the MetAP-2 inhibitor. OC differentiation was determined by staining for the OC marker TRAP, using a leukocyte acid phosphatase kit (Sigma). Briefly, after 7 days in culture, the cells were rinsed once with PBS, fixed with 37% formaldehyde in acetone-citrate buffer for 1 min, and stained for development of red color according to the manufacturer's instructions.
# The instant invention features such an inhibitor. In order to investigate the activity of the MetAP-2 inhibitor on osteoclast (OC) differentiation and bone resorption in vitro, yet another cell type critically associated with R^A pathogenesis in an in vitro osteoclastogenesis model was utilized. Primary human OC precursors were cultured for 7 days in the presence of M-CSF and RANKL, and vehicle or increasing concentrations of the MetAP-2 inhibitor.
# CTX-I = assay: Urinary CTX-I ELISA in rat PG-PS arthritis model; assay type: in vivo; settings: 1, 5 and 10 mg/kg p.o. qod
# Method: (§1) ELISAs for cartilage and bone biochemical turnover markers. The amount of COMP in serum was measured with a competitive enzyme immunoassay (MD Biosciences, Inc) according to the manufacturer's instructions. The detection limit of this ELISA was 0.2 U/L. Helical peptide (amino acids 620 to 633) from the α1 chain of bone-specific human CTX-I was measured either in cell culture supernatants of primary human OC precursors cultured as described above, or in urine with a competitive enzyme immunoassay (Quidel Corporation). The detection limit of this ELISA was 8 μg/L. All CTX-I measurements in urine were corrected for urinary creatinine excretion for each sample to account for potential differences in renal clearance rates among the different study groups. Urinary creatinine was measured with a colorimetric assay (Quidel Corporation).
# To assess the activity of the MetAP-2 inhibitor on systemic bone resorption in vivo, the amount of systemic CTX-I in urine was measured and corrected for urinary creatinine excretion after conclusion of the study.
# MetAP-2 = biological target: T1, MetAP-2 (Rattus norvegicus, UniProt P38062); assay: MetAP-2 pharmacodynamic assay in wbc lysates; assay type: in vivo; settings: po, PG-PS arthritis rats, read-out: MetAP-2 in wbc inhibited relative to vehicle-treated group
# T1 construct: wbc from animals of each study group were pooled and cell lysates were prepared as previously described; from tissue; host or cells: white blood cells (wbc) of female Lewis rats, pooled per study group and lysed
# T1 sequence (P38062 whole entry): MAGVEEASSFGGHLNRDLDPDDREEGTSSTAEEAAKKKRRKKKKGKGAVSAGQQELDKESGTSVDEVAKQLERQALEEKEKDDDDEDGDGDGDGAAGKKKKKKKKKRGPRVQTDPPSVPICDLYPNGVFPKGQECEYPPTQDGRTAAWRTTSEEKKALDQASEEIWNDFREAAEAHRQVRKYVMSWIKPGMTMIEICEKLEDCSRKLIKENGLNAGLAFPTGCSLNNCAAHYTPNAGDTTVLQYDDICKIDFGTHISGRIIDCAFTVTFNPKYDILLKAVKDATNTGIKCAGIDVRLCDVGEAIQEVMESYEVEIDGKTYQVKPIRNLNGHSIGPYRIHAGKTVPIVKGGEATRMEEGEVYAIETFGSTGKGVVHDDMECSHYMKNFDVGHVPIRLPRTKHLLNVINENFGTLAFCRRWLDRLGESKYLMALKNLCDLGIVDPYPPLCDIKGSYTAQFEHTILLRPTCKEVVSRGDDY
# Method: MetAP-2 pharmacodynamic assay. The MetAP-2 assay measures the amount of uninhibited MetAP-2 in cells or tissues which has not been derivitized by prior treatment with the MetAP-2 inhibitor (Bernier (2004) Proc. Natl. Acad. Sci. USA 101: 10768-10773 and Bernier (2005) J. Cell. Biochem. 95: 1191-1203). Briefly, wbc from animals of each study group were pooled and cell lysates were prepared as previously described (Bernier (2004) Proc. Natl. Acad. Sci. USA 101: 10768-10773 and Bernier (2005) J. Cell. Biochem. 95: 1191-1203). 10 μg to 20 μg of wbc protein was incubated with a biotinylated analog of the MetAP-2 inhibitor which covalently binds to the catalytic site of MetAP-2. The biotinylated MetAP-2-inhibitor complex was captured on a plate with immobilized streptavidin (Pierce), and detected with the MetAP-2 antibody CM33 (0.5 μg/ml), followed by horseradish peroxidase-conjugated goat anti-rabbit IgG secondary antibody. The amount of uninhibited MetAP-2 was determined by measuring the absorption at 450 nm using a Labsystems Multiskan plate spectrophotometer. Human recombinant MetAP-2 (Mediomics), pre-bound to the biotinylated MetAP-2 inhibitor, was used to generate the standard curve. The detection limit of this assay was 0.47 ng MetAP-2 protein/mg wbc protein.
# Since the MetAP-2 inhibitor had the ability to inhibit multiple cell types critical for pathogenesis of the bone associated disease, RA, in vitro, it was hypothesized that the observations from the in vitro studies (Example 1) would translate into protection from disease in animals in the PG-PS model of arthritis. The progression of disease in this model follows a biphasic mode, with an early acute, predominantly neutrophil-driven phase which persists to days 6-7, followed by a chronic, T cell dependent phase (evident around day 12), which is characterized by chronic inflammation and erosive synovitis (Palombella (1998) Proc. Natl. Acad. Sci. USA 95:15671-15676). Therapeutic dosing of animals administered the MetAP-2 inhibitor orally (p.o.) at 1, 5 and 10 mg/kg, every other day (qod), or vehicle started at day 15 after the chronic destructive phase of the disease was established and terminated on day 31. […] The amount of uninhibited MetAP-2 in wbc of animals from all treatment groups was measured after conclusion of the study, using the MetAP-2 pharmacodynamic assay (Bernier (2004) Proc. Natl. Acad. Sci. USA 101: 10768-10773 and Bernier (2005) J. Cell. Biochem. 95: 1191-1203). […]
# [2] = tested on: primary human OC cultured on human bone particles; assay: Bone resorption in vitro, CTX-I ELISA of culture supernatant; assay type: cell-based
# Method: as §1
# To determine whether the inhibition of OC differentiation by the MetAP-2 inhibitor in vitro correlated with the inhibition of bone resorption in vitro, primary human OC were cultured on a thin layer of human bone particles in the presence of M-CSF and RANKL, and vehicle or increasing concentrations of the MetAP-2 inhibitor. […] After 7 days, the culture supernatant was collected and the amount of bone-specific collagen type I C-terminal helical peptide (CTX-I) was measured by ELISA.
# HUVEC = settings: in vitro; cited from earlier work
smiles,measurement,setting,value
"CO[C@@H]1[C@H](OC(=O)N[C@@H](C(N)=O)C(C)C)CC[C@]2(CO2)[C@H]1[C@@]1(C)O[C@@H]1CC=C(C)C [MetAP-2 inhibitor, (1-Carbamoyl-2-methyl-propyl)-carbamic acid-(3R,4S,5S,6R)-5-methoxy-4-[(2R,3R)-2-methyl-3-(3-methyl-but-2-enyl)-oxiranyl]-1-oxa-spiro[2,5]oct-6-yl ester]",reversibility of the inhibition of OC differentiation,[1],fully reversible
same,inhibition of OC differentiation,[1]; concentration ≦0.1 nM,no detectable inhibition
same,generation of TRAP-positive mononuclear and multinucleated OC,"[1]; concentrations at ≦1 nM, 7 days with M-CSF and RANKL",almost completely inhibited
same,"systemic urinary CTX-I levels corrected for creatinine, versus vehicle",CTX-I,significantly decreased
same,inhibition at 1 mg/kg,MetAP-2; 1 mg/kg p.o. qod,≥ 60%
same,inhibition at 5 mg/kg,MetAP-2; 5 mg/kg p.o. qod,≥ 95%
same,inhibition at 10 mg/kg,MetAP-2; 10 mg/kg p.o. qod,≥ 95%
same,IC50,"[2]; 168 h, 7 days, M-CSF and RANKL, human bone particles, read-out: IC50, bone resorbing activity of OC (CTX-I)",≤ 0.1 nM
same,degree of inhibition of bone resorption,"[2]; at 1 nM and 10 nM, versus E-64 at 100 nM",comparable to the inhibitory activity of E-64 at 100 nM
same,inhibition of proliferation of HUVEC,HUVEC,potently inhibit
